Source: article PMC8920097, “Prediction of hERG inhibition of drug discovery compounds using biomimetic HPLC measurements” (ADMET & DMPK, 2021)
Read-outs that look alike come from different tables or passages of the source.

Experiments:
[1] = design: method as in doi:10.5599/admet.5.1.373; conditions: calibration set; predetermined by isocratic measurements; cited from earlier work
[2] = design: method as in PMID 11472245; conditions: cited from earlier work
AGP [3] = assay: Literature % binding to AGP by equilibrium dialysis (calibration set); conditions: log k = log (%binding/(101-%binding)) from literature % binding
HSA [4] = conditions: calibration set; log k = log (%binding/(101-%binding)) from literature % binding
AGP [5] = conditions: calibration set; equilibrium dialysis; literature; cited from earlier work
HSA [6] = conditions: calibration set; equilibrium dialysis; literature; cited from earlier work
[7] = Phospholipid binding at pH 7.4 on IAM PC.DD2 HPLC column; format: physicochemical; design: key to CHI IAM: approximates acetonitrile concentration (%) in mobile phase at elution; conditions: for log k IAM: pH 7.4, derived from CHI IAM by equation 1; for CHI IAM: pH 7.4
Procedure: The phospholipid-binding was measured using an IAM PC.DD2 column with dimensions of 100 x 4.6 mm (Regis Technologies Inc., Morton Grove, IL, USA). The gradient retention times were measured using a 50 mM ammonium acetate mobile phase with the pH adjusted to 7.4. The mobile phase flow rate was 1.5 mL/min. […] The cycle time was 6 min, plus an additional 1 min equilibration time was applied while the injector prepared for the next injection. The gradient retention times were calibrated with the acetophenone homologues for which the CHI IAM values have been established using isocratic measurements. […] The CHI Index on the IAM column (CHI IAM) approximates the acetonitrile concentration in the mobile phase when the compound elutes. […] The CHI IAM values have been converted to log k IAM values derived from the CHI IAM values using equation 1. It represents the equivalent value derived from several isocratic measurements with extrapolated log retention factors to 100 % aqueous mobile phase. The log k IAM values can be converted to log K (IAM) values and show linear relationships with the octanol/water partition coefficients.

[8] = molecular target: human serum albumin (HSA) (Homo sapiens, UniProt P02768); assay: Protein binding on Chiralpak HSA HPLC column; conditions: pH 7.4, Chiralpak HSA
Procedure: (§1) The measurement of the biomimetic properties of the available drugs was conducted in our laboratories. Generic gradient HPLC methods were used to determine the chromatographic hydrophobicity Index (CHI) using mobile phases at three different pH values. The protein binding of the compounds was measured using immobilised human serum albumin (HSA), and alpha-1-acid-glycoprotein (AGP) stationary phases. The phospholipid-binding was measured using the immobilised artificial membrane (IAM) stationary phase. The aim was to establish relationships between the cardiotoxicity potential and the biomimetic binding properties of the drugs and to evaluate their predictive performance.

[9] = tested on: alpha-1-acid-glycoprotein (AGP); assay: Protein binding on Chiralpak AGP HPLC column; conditions: pH 7.4, Chiralpak AGP
Procedure: as §1

hERG channel = conditions: cited from earlier work
AGP [10] = tested on: AGP
[11] = Charge character of the drugs at pH 7.4; format: physicochemical
[12] = CHI lipophilicity by gradient reversed-phase HPLC (Gemini NX-C-18); conditions: for chromatographic logD: Gemini NX-C-18 reversed-phase HPLC column, pH 7.4
Procedure: The Chromatographic Hydrophobicity Index (CHI) was measured using the compounds’ calibrated gradient retention times obtained from an Agilent 1100 HPLC fitted with a Gemini NX-C-18 column (Phenomenex Ltd Macclesfield, UK) with dimensions of 50 x 3 mm and 5 μm particle size. […] The mobile phase B was 100 % acetonitrile. […] An acetonitrile linear gradient was used from 0 to 100 %. […] The retention time values for a standard set of compounds listed in Table 1 were used to convert the drug retention times to CHI values.

[13] = literature values, mean where several reported, molar
[14] = reversed-phase HPLC, Gemini NX-C-18 column (50 x 3 mm, 5 µm)

Chain of human serum albumin (HSA) (P02768 25-609): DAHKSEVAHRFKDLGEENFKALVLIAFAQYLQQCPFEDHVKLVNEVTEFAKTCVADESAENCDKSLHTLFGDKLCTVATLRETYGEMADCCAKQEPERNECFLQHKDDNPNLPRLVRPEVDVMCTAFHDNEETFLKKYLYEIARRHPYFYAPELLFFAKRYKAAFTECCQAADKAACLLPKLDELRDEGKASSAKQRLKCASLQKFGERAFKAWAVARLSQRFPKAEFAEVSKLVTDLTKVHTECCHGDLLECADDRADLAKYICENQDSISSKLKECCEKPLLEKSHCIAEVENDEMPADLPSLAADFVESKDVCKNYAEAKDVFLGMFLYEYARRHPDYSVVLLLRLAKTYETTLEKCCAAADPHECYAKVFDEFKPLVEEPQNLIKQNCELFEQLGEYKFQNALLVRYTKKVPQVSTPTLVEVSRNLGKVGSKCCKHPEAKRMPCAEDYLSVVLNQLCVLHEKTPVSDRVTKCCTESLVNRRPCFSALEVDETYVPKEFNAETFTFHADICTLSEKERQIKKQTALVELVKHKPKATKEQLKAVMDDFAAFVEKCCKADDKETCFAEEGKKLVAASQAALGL

SMILES | log k IAM [7] | log k HSA [8] | log k AGP [9] | hERG pIC50 (hERG channel; [13]) | Charge [11] | chromatographic logD [12] | chromatographic logP [12, 14] | also measured
CC(=O)c1ccccc1 [Acetophenone] | – | – | – | – | – | – | – | CHI IAM [1]: 17.2; CHI at pH 2.6 ([2]; calibration set): 64.1; CHI at pH 7.4 ([2]; calibration set): 65.1; CHI at pH 10.5 ([2]; calibration set): 64.1
CNC(=C[N+](=O)[O-])NCCSCc1csc(CN(C)C)n1 [Nizatidine] | – | – | – | – | – | – | – | log k AGP (AGP [3]): -0.2; log k HSA (HSA [4]): -0.6; % AGP (AGP [5]): 37.1%; %HSA (HSA [6]): 20.4%
COc1cc(Cc2cnc(N)nc2N)cc(OC)c1OC [Trimethoprim] | 1.01 | -0.05 | -0.07 | 3.62 | – | – | – | log k AGP (AGP [3]): -0.1; log k HSA (HSA [4]): -0.2; % AGP (AGP [5]): 46.2%; %HSA (HSA [6]): 37.6%
CC(=O)Nc1ccc(O)cc1 [Paracetamol] | – | – | – | – | – | – | – | log k AGP (AGP [3]): -1.5; log k HSA (HSA [4]): -0.8; % AGP (AGP [5]): 3.2%; CHI IAM [1]: 2.9; %HSA (HSA [6]): 14.0%
CC(=O)CC(c1ccccc1)c1c(O)c2ccccc2oc1=O (stereo not shown) [Warfarin] | – | – | – | – | – | – | – | log k HSA (HSA [4]): 1.5; % AGP (AGP [5]): 83.2%; log k AGP (AGP [10]): 0.7
CCC(=O)c1ccccc1 [Propiophenone] | – | – | – | – | – | – | – | CHI IAM [1]: 25.9; CHI at pH 2.6 ([2]; calibration set): 77.4; CHI at pH 7.4 ([2]; calibration set): 77.4; CHI at pH 10.5 ([2]; calibration set): 77.4
c1ccc(-c2nn[nH]n2)cc1 [Phenyl tetrazole] | – | – | – | – | – | – | – | CHI at pH 2.6 ([2]; calibration set): 42.2; CHI at pH 7.4 ([2]; calibration set): 23.6; CHI at pH 10.5 ([2]; calibration set): 16.0
Cn1c(=O)c2nc(-c3ccccc3)[nH]c2n(C)c1=O [Phenyl theophylline] | – | – | – | – | – | – | – | CHI at pH 2.6 ([2]; calibration set): 51.7; CHI at pH 7.4 ([2]; calibration set): 51.2; CHI at pH 10.5 ([2]; calibration set): 51.3
NC(=O)N1c2ccccc2C=Cc2ccccc21 [Carbamazepine] | 1.53 | 0.07 | -0.85 | 3.98 | Neutral | 1.22 | 1.33 | log k AGP (AGP [3]): 0.3; CHI IAM [7]: 23.98; log k HSA (HSA [4]): 0.5; % AGP (AGP [5]): 65.0%; %HSA (HSA [6]): 75.0%
O=C(O)Cc1ccccc1Nc1c(Cl)cccc1Cl [Diclofenac] | – | – | – | – | – | – | – | log k AGP (AGP [3]): 0.2
CCCCCCC(=O)c1ccccc1 [Heptanophenone] | – | – | – | – | – | – | – | CHI IAM [1]: 45.7
CC(C)NCC(O)COc1cccc2ccccc12 (stereo not shown) [Propranolol] | 2.36 | – | 0.84 | – | Basic | – | – | log k AGP (AGP [3]): 0.8; log k HSA (HSA [4]): 0.3; % AGP (AGP [5]): 86.0%; %HSA (HSA [6]): 66.6%
CCCCCC(=O)c1ccccc1 [Hexanophenone] | – | – | – | – | – | – | – | CHI IAM [1]: 41.8
CCCCC(=O)c1ccccc1 [Valerophenone] | – | – | – | – | – | – | – | CHI IAM [1]: 37.3; CHI at pH 2.6 ([2]; calibration set): 96.4; CHI at pH 7.4 ([2]; calibration set): 96.2; CHI at pH 10.5 ([2]; calibration set): 96.4
Cn1c(=O)c2[nH]cnc2n(C)c1=O [Theophylline] | – | – | – | – | – | – | – | CHI at pH 2.6 ([2]; calibration set): 17.9; CHI at pH 7.4 ([2]; calibration set): 18.4; CHI at pH 10.5 ([2]; calibration set): 5.0
CCCOC(C(=O)OC1CCN(C)CC1)(c1ccccc1)c1ccccc1 [Propiverine] | 3.12 | 1.01 | 0.94 | 5.22 | Basic | 3.84 | 5.05 | –

SMILES | log k IAM [7] | log k HSA [8] | log k AGP [9] | hERG pIC50 (hERG channel; [13]) | Charge [11] | chromatographic logD [12] | chromatographic logP [12, 14] | also measured
COC(=O)C1=C(C)NC(C)=C(C(=O)OCCN(C)Cc2ccccc2)C1c1cccc([N+](=O)[O-])c1 (stereo not shown) [Nicardipine] | – | – | – | – | – | – | – | log k AGP (AGP [3]): 0.8; log k HSA (HSA [4]): 1.2; % AGP (AGP [5]): 87.0%
CC[C@H]1OC(=O)[C@H](C)[C@@H](O[C@H]2C[C@@](C)(OC)[C@@H](O)[C@H](C)O2)[C@H](C)[C@@H](O[C@@H]2O[C@H](C)C[C@H](N(C)C)[C@H]2O)[C@](C)(O)C[C@@H](C)/C(=N\OCOCCOC)[C@H](C)[C@@H](O)[C@]1(C)O [Roxithromycin] | 2.78 | -0.07 | 0.60 | 4.44 | Basic | 1.95 | 3.7 | CHI IAM [7]: 51.33
c1ccc2[nH]cnc2c1 [Benzimidazole] | – | – | – | – | – | – | – | CHI at pH 2.6 ([2]; calibration set): 6.3; CHI at pH 7.4 ([2]; calibration set): 34.3; CHI at pH 10.5 ([2]; calibration set): 30.6
O=C1NC(=O)C(c2ccccc2)(c2ccccc2)N1 [Phenytoin] | 1.78 | 0.69 | 0.15 | – | Weak Acid | 1.73 | 1.85 | CHI IAM [7]: 29.66; hERG pIC50 (hERG channel): 3.71
COc1cc2c(c(OC)c1OC)-c1ccc(OC)c(=O)cc1[C@@H](NC(C)=O)CC2 [Colchicine] | – | – | – | – | – | – | – | CHI at pH 2.6 [2]: 43.9; CHI at pH 7.4 [2]: 45.0; CHI at pH 10.5 [2]: 43.9
COc1ccc2c(c1)c(CC(=O)O)c(C)n2C(=O)c1ccc(Cl)cc1 [Indomethacin] | 1.81 | – | 0.18 | – | Acidic | 1.47 | – | log k AGP (AGP [3]): 0.1; CHI IAM [7]: 30.11; log k HSA (HSA [4]): 1.8; % AGP (AGP [5]): 56.0%; hERG pIC50 (hERG channel): 3.72; chromatographic logP [12]: 3.31
CCCCN1CCCC[C@H]1C(=O)Nc1c(C)cccc1C [Levobupivacaine] | 2.34 | 0.13 | 1.25 | 5.48 | Weak Base | 3.25 | 4.2 | CHI IAM [7]: 41.83
CC(=O)Nc1ccccc1 [Acetanilide] | – | – | – | – | – | – | – | CHI IAM [1]: 11.5
CCCCN1CCCCC1C(=O)Nc1c(C)cccc1C (stereo not shown) [Bupivacaine] | 2.34 | -0.10 | 1.35 | 5.51 | Weak Base | 3.06 | 3.97 | CHI IAM [7]: 41.66
c1ccc2[nH]ccc2c1 [Indole] | – | – | – | – | – | – | – | CHI at pH 2.6 [2]: 72.1; CHI at pH 7.4 [2]: 71.5; CHI at pH 10.5 [2]: 72.1
CN(C)CCC(c1ccc(Br)cc1)c1ccccn1 (stereo not shown) [Brompheniramine] | 2.8 | 0.68 | 0.68 | 5.61 | Basic | 1.74 | 4.27 | –
Cc1nccn1CC1CCc2c(c3ccccc3n2C)C1=O (stereo not shown) [Ondansetron] | 2.22 | 0.54 | 1.30 | 5.73 | Weak Base | 1.33 | 1.66 | CHI IAM [7]: 39.01
CCCCC1=NC2(CCCC2)C(=O)N1Cc1ccc(-c2ccccc2-c2nnn[nH]2)cc1 [Irbesartan] | 1.62 | 1.30 | 1.10 | 4.71 | Zwitterionic | 1.39 | 2 | CHI IAM [7]: 26.14
CCCCCCCC(=O)c1ccccc1 [Octanophenone] | – | – | – | – | – | – | – | CHI IAM [1]: 49.4
CCCN1C[C@H](CSC)C[C@@H]2c3cccc4[nH]cc(c34)C[C@H]21 [Pergolide] | 2.85 | 0.73 | 1.04 | 6.52 | Basic | 2.47 | 3.81 | –
CCCC(=O)c1ccccc1 [Butyrophenone] | – | – | – | – | – | – | – | CHI IAM [1]: 32.0; CHI at pH 2.6 ([2]; calibration set): 87.3; CHI at pH 7.4 ([2]; calibration set): 87.5; CHI at pH 10.5 ([2]; calibration set): 87.3
